Measurements reported in patent publication US10695337B2, “Piperidin-4-yl azetidine derivatives as JAK1 inhibitors” (Incyte Corporation, priority 2010, dated 2020).

These compounds were tested against human JAK1 (a.a. 837-1142) (assay: In vitro JAK kinase assay (HTRF, phosphorylation of a biotinylated peptide), JAK1). Details: measured at 1 mM ATP; JAK2 IC50 / JAK1 IC50.
Type: biochemical
Description: Compounds herein were tested for inhibitory activity of JAK targets according to the following in vitro assay described in Park et al., Analytical Biochemistry 1999, 269, 94-104. The catalytic domains of human JAK1 (a.a. 837-1142), Jak2 (a.a. 828-1132) and Jak3 (a.a. 781-1124) with an N-terminal His tag were expressed using baculovirus in insect cells and purified. The catalytic activity of JAK1, JAK2 or JAK3 was assayed by measuring the phosphorylation of a biotinylated peptide. The phosphorylated peptide was detected by homogenous time resolved fluorescence (HTRF). […] Reactions were carried out at room temperature for 1 hr and then stopped with 20 μL 45 mM EDTA, 300 nM SA-APC, 6 nM Eu-Py20 in assay buffer (Perkin Elmer, Boston, Mass.). Binding to the Europium labeled antibody took place for 40 minutes and HTRF signal was measured on a Fusion plate reader (Perkin Elmer, Boston, Mass.).

| SMILES | IC50 Ratio JAK2/JAK1 |
| --- | --- |
| N#CCC1(n2cc(-c3ncnc4[nH]ccc34)cn2)CN(C2CCN(C(=O)c3cc(F)cc(Br)c3)CC2)C1 [Example 29, {1-[1-(3-bromo-5-fluorobenzoyl)piperidin-4-yl]-3-[4-(7H-pyrrolo[2,3-d]pyrimidin-4-yl)-1H-pyrazol-1-yl]azetidin-3-yl}acetonitrile] | 7.2 |
| N#CCC1(n2cc(-c3ncnc4[nH]ccc34)cn2)CN(C2CCN(C(=O)c3cc(Cl)sc3Cl)CC2)C1 [Example 30, {1-{1-[(2,5-dichloro-3-thienyl)carbonyl]piperidin-4-yl}-3-[4-(7H-pyrrolo[2,3-d]pyrimidin-4-yl)-1H-pyrazol-1-yl]azetidin-3-yl}acetonitrile] | 2.8 |
| COc1cccc(C(=O)N2CCC(N3CC(CC#N)(n4cc(-c5ncnc6[nH]ccc56)cn4)C3)CC2)c1 [Example 31, {1-[1-(3-methoxybenzoyl)piperidin-4-yl]-3-[4-(7H-pyrrolo[2,3-d]pyrimidin-4-yl)-1H-pyrazol-1-yl]azetidin-3-yl}acetonitrile] | 1.9 |
| COc1c(F)c(F)cc(C(=O)N2CCC(N3CC(CC#N)(n4cc(-c5ncnc6[nH]ccc56)cn4)C3)CC2)c1F [Example 32, {3-[4-(7H-pyrrolo[2,3-d]pyrimidin-4-yl)-1H-pyrazol-1-yl]-1-[1-(2,4,5-trifluoro-3-methoxybenzoyl)piperidin-4-yl]azetidin-3-yl}acetonitrile] | 4.4 |
| COc1cc(OC)cc(C(=O)N2CCC(N3CC(CC#N)(n4cc(-c5ncnc6[nH]ccc56)cn4)C3)CC2)c1 [Example 33, {1-[1-(3,5-dimethoxybenzoyl)piperidin-4-yl]-3-[4-(7H-pyrrolo[2,3-d]pyrimidin-4-yl)-1H-pyrazol-1-yl]azetidin-3-yl}acetonitrile] | 0.5 |
| N#CCC1(n2cc(-c3ncnc4[nH]ccc34)cn2)CN(C2CCN(C(=O)c3ccc(F)c(Cl)c3)CC2)C1 [Example 34, {1-[1-(3-chloro-4-fluorobenzoyl)piperidin-4-yl]-3-[4-(7H-pyrrolo[2,3-d]pyrimidin-4-yl)-1H-pyrazol-1-yl]azetidin-3-yl}acetonitrile] | 6.0 |
| N#CCC1(n2cc(-c3ncnc4[nH]ccc34)cn2)CN(C2CCN(C(=O)c3ccc(F)c(F)c3)CC2)C1 [Example 35, {1-[1-(3,4-difluorobenzoyl)piperidin-4-yl]-3-[4-(7H-pyrrolo[2,3-d]pyrimidin-4-yl)-1H-pyrazol-1-yl]azetidin-3-yl}acetonitrile] | 6.9 |
| COc1cc(F)cc(C(=O)N2CCC(N3CC(CC#N)(n4cc(-c5ncnc6[nH]ccc56)cn4)C3)CC2)c1 [Example 36, {1-[1-(3-fluoro-5-methoxybenzoyl)piperidin-4-yl]-3-[4-(7H-pyrrolo[2,3-d]pyrimidin-4-yl)-1H-pyrazol-1-yl]azetidin-3-yl}acetonitrile] | 2.3 |
| COc1cc(C(=O)N2CCC(N3CC(CC#N)(n4cc(-c5ncnc6[nH]ccc56)cn4)C3)CC2)cc(Cl)n1 [Example 37, {1-[1-(2-chloro-6-methoxyisonicotinoyl)piperidin-4-yl]-3-[4-(7H-pyrrolo[2,3-d]pyrimidin-4-yl)-1H-pyrazol-1-yl]azetidin-3-yl}acetonitrile] | 2.1 |
| COc1ccc(F)cc1C(=O)N1CCC(N2CC(CC#N)(n3cc(-c4ncnc5[nH]ccc45)cn3)C2)CC1 [Example 38, {1-[1-(5-fluoro-2-methoxybenzoyl)piperidin-4-yl]-3-[4-(7H-pyrrolo[2,3-d]pyrimidin-4-yl)-1H-pyrazol-1-yl]azetidin-3-yl}acetonitrile] | 5.7 |
| COc1cccc(F)c1C(=O)N1CCC(N2CC(CC#N)(n3cc(-c4ncnc5[nH]ccc45)cn3)C2)CC1 [Example 39, {1-[1-(2-fluoro-6-methoxybenzoyl)piperidin-4-yl]-3-[4-(7H-pyrrolo[2,3-d]pyrimidin-4-yl)-1H-pyrazol-1-yl]azetidin-3-yl}acetonitrile] | 3.2 |
| COc1cc(F)ccc1C(=O)N1CCC(N2CC(CC#N)(n3cc(-c4ncnc5[nH]ccc45)cn3)C2)CC1 [Example 40, {1-[1-(4-fluoro-2-methoxybenzoyl)piperidin-4-yl]-3-[4-(7H-pyrrolo[2,3-d]pyrimidin-4-yl)-1H-pyrazol-1-yl]azetidin-3-yl}acetonitrile] | 4.8 |
| N#CCC1(n2cc(-c3ncnc4[nH]ccc34)cn2)CN(C2CCN(C(=O)c3cccc(F)c3F)CC2)C1 [Example 41, {1-[1-(2,3-difluorobenzoyl)piperidin-4-yl]-3-[4-(7H-pyrrolo[2,3-d]pyrimidin-4-yl)-1H-pyrazol-1-yl]azetidin-3-yl}acetonitrile] | 4.9 |
| N#CCC1(n2cc(-c3ncnc4[nH]ccc34)cn2)CN(C2CCN(C(=O)c3ccc(F)cc3F)CC2)C1 [Example 42, {1-[1-(2,4-difluorobenzoyl)piperidin-4-yl]-3-[4-(7H-pyrrolo[2,3-d]pyrimidin-4-yl)-1H-pyrazol-1-yl]azetidin-3-yl}acetonitrile] | 6.7 |
| N#CCC1(n2cc(-c3ncnc4[nH]ccc34)cn2)CN(C2CCN(C(=O)c3cc(F)ccc3F)CC2)C1 [Example 43, {1-[1-(2,5-difluorobenzoyl)piperidin-4-yl]-3-[4-(7H-pyrrolo[2,3-d]pyrimidin-4-yl)-1H-pyrazol-1-yl]azetidin-3-yl}acetonitrile] | 5.0 |
| N#CCC1(n2cc(-c3ncnc4[nH]ccc34)cn2)CN(C2CCN(C(=O)c3c(F)cccc3F)CC2)C1 [Example 44, {1-[1-(2,6-difluorobenzoyl)piperidin-4-yl]-3-[4-(7H-pyrrolo[2,3-d]pyrimidin-4-yl)-1H-pyrazol-1-yl]azetidin-3-yl}acetonitrile] | 2.9 |
| N#CCC1(n2cc(-c3ncnc4[nH]ccc34)cn2)CN(C2CCN(C(=O)c3c(F)cccc3C(F)(F)F)CC2)C1 [Example 45, {1-{1-[2-fluoro-6-(trifluoromethyl)benzoyl]piperidin-4-yl}-3-[4-(7H-pyrrolo[2,3-d]pyrimidin-4-yl)-1H-pyrazol-1-yl]azetidin-3-yl}acetonitrile] | 3.1 |
| N#CCC1(n2cc(-c3ncnc4[nH]ccc34)cn2)CN(C2CCN(C(=O)c3ccc(F)c(F)c3F)CC2)C1 [Example 46, {3-[4-(7H-pyrrolo[2,3-d]pyrimidin-4-yl)-1H-pyrazol-1-yl]-1-[1-(2,3,4-trifluorobenzoyl)piperidin-4-yl]azetidin-3-yl}acetonitrile] | 6.3 |
| N#CCC1(n2cc(-c3ncnc4[nH]ccc34)cn2)CN(C2CCN(C(=O)c3c(F)ccc(F)c3F)CC2)C1 [Example 47, {3-[4-(7H-pyrrolo[2,3-d]pyrimidin-4-yl)-1H-pyrazol-1-yl]-1-[1-(2,3,6-trifluorobenzoyl)piperidin-4-yl]azetidin-3-yl}acetonitrile] | 3.7 |
| N#CCC1(n2cc(-c3ncnc4[nH]ccc34)cn2)CN(C2CCN(C(=O)c3cc(F)c(F)cc3F)CC2)C1 [Example 48, {3-[4-(7H-pyrrolo[2,3-d]pyrimidin-4-yl)-1H-pyrazol-1-yl]-1-[1-(2,4,5-trifluorobenzoyl)piperidin-4-yl]azetidin-3-yl}acetonitrile] | 6.5 |
| N#CCC1(n2cc(-c3ncnc4[nH]ccc34)cn2)CN(C2CCN(C(=O)c3c(F)cc(F)cc3F)CC2)C1 [Example 49, {3-[4-(7H-pyrrolo[2,3-d]pyrimidin-4-yl)-1H-pyrazol-1-yl]-1-[1-(2,4,6-trifluorobenzoyl)piperidin-4-yl]azetidin-3-yl}acetonitrile] | 6.5 |
| COc1c(Br)cc(C(=O)N2CCC(N3CC(CC#N)(n4cc(-c5ncnc6[nH]ccc56)cn4)C3)CC2)cc1Br [Example 50, {1-[1-(3,5-dibromo-4-methoxybenzoyl)piperidin-4-yl]-3-[4-(7H-pyrrolo[2,3-d]pyrimidin-4-yl)-1H-pyrazol-1-yl]azetidin-3-yl}acetonitrile] | 6.9 |
| CN(C)c1ccc(C(=O)N2CCC(N3CC(CC#N)(n4cc(-c5ncnc6[nH]ccc56)cn4)C3)CC2)c(F)c1C#N [Example 51, 3-[(4-{3-(cyanomethyl)-3-[4-(7H-pyrrolo[2,3-d]pyrimidin-4-yl)-1H-pyrazol-1-yl]azetidin-1-yl}piperidin-1yl)carbonyl]-6-(dimethylamino)-2-fluorobenzonitrile] | 6.3 |
| N#CCC1(n2cc(-c3ncnc4[nH]ccc34)cn2)CN(C2CCN(C(=O)c3ccc(C(F)(F)F)c(F)c3)CC2)C1 [Example 52, {1-{1-[3-fluoro-4-(trifluoromethyl)benzoyl]piperidin-4-yl}-3-[4-(7H-pyrrolo[2,3-d]pyrimidin-4-yl)-1H-pyrazol-1-yl]azetidin-3-yl}acetonitrile] | 4.4 |
| N#CCC1(n2cc(-c3ncnc4[nH]ccc34)cn2)CN(C2CCN(C(=O)c3cc(Cl)cc(C(F)(F)F)n3)CC2)C1 [Example 53, {1-(1-{[4-chloro-6-(trifluoromethyl)pyridin-2-yl]carbonyl}piperidin-4-yl)-3-[4-(7H-pyrrolo[2,3-d]pyrimidin-4-yl)-1H-pyrazol-1-yl]azetidin-3-yl}acetonitrile] | 9.4 |
| N#CCC1(n2cc(-c3ncnc4[nH]ccc34)cn2)CN(C2CCN(C(=O)c3cc(F)c(F)c(F)c3F)CC2)C1 [Example 54, {3-[4-(7H-pyrrolo[2,3-d]pyrimidin-4-yl)-1H-pyrazol-1-yl]-1-[1-(2,3,4,5-tetrafluorobenzoyl)piperidin-4-yl]azetidin-3-yl}acetonitrile] | 9.1 |
